Measured values as given in US20240317772A1, “SESQUITERPENE DERIVATIVE AND PHARMACEUTICAL COMPOSITION THEREOF, AND THEIR PREPARATION METHODS AND USE” (TIANJIN JIKUN MEDICAL TECHNOLOGY CO., LTD., priority 2022, published 2024).

Legend:
Format in all cases: in vivo
Tumor cells MFC = assay: Anti-tumor effect in MFC tumor-bearing mice (alone and combined with PD-1 monoclonal antibody); conditions: female BALB/c-nu/nu mice; by tumor weight vs control group; compounds 150 mg/kg orally every day; PD-1 monoclonal antibody 10 mg/kg intraperitoneally every three days; combination: both
From the text: (§1) Tumor cells B16F10, LLC, PAN02, H22, CT26, MFC, and GL261 (purchased from Biological Industries) in good growth status were collected, separately washed twice with 1×PBS, and a total number of the cells was counted with a cell counter, and a cell solution was separately diluted with 1×PBS to obtain a cell suspension of 1×10^7 cells/mL. The mice used in this experiment were purchased from Beijing Vital River Laboratory (Beijing, China). The above different types of tumor cells were inoculated into different types of mice to produce corresponding tumor-bearing mice, and the correspondences are as follows. Tumor cell B16F10 corresponds to female mice C57BL/6 aged 6-8 weeks; Tumor cell LLC corresponds to female mice Balb/c aged 6-8 weeks; Tumor cell PAN02 corresponds to female mice C57BL/6J aged 6-8 weeks; Tumor cell H22 corresponds to female mice C57BL/6 aged 6-8 weeks; Tumor cell CT26 corresponds to female mice Balb/c aged 6-8 weeks; Tumor cell MFC corresponds to female mice BALB/c-nu/nu aged 6-8 weeks; and Tumor cell GL261 corresponds to female mice C57BL/6 aged 6-8 weeks. […] After the experiment was completed, the mice were euthanized, tumor tissues thereof were collected, and volume and weight of the tumor tissues were tested to calculate a tumor inhibition rate. Tumor inhibition rate=(1-tumor weight of treatment group/tumor weight of control group)×100%

Tumor cells H22 = assay: Anti-tumor effect in H22 tumor-bearing mice (alone and combined with PD-1 monoclonal antibody); conditions: female C57BL/6 mice; by tumor weight vs control group; compounds 150 mg/kg orally every day; PD-1 monoclonal antibody 10 mg/kg intraperitoneally every three days; combination: both
From the text: as §1

Tumor cells CT26 = assay: Anti-tumor effect in CT26 tumor-bearing mice (alone and combined with PD-1 monoclonal antibody); conditions: female Balb/c mice; by tumor weight vs control group; compounds 150 mg/kg orally every day; PD-1 monoclonal antibody 10 mg/kg intraperitoneally every three days; combination: both
From the text: as §1

Tumor cells LLC = assay: Anti-tumor effect in LLC tumor-bearing mice (alone and combined with PD-1 monoclonal antibody); conditions: female Balb/c mice; by tumor weight vs control group; compounds 150 mg/kg orally every day; PD-1 monoclonal antibody 10 mg/kg intraperitoneally every three days; combination: both
From the text: as §1

Tumor cells B16F10 = assay: Anti-tumor effect in B16F10 tumor-bearing mice (alone and combined with PD-1 monoclonal antibody); conditions: female C57BL/6 mice; by tumor weight vs control group; compounds 150 mg/kg orally every day; PD-1 monoclonal antibody 10 mg/kg intraperitoneally every three days; combination: both
From the text: as §1

Tumor cells GL261 = assay: Anti-tumor effect in GL261 tumor-bearing mice (alone and combined with PD-1 monoclonal antibody); conditions: for Tumor inhibition rate GL261: female C57BL/6 mice, by tumor weight vs control group, compounds 150 mg/kg orally every day, PD-1 monoclonal antibody 10 mg/kg intraperitoneally every three days, combination: both
From the text: as §1

Tumor cells PAN02 = assay: Anti-tumor effect in PAN02 tumor-bearing mice (alone and combined with PD-1 monoclonal antibody); conditions: for Tumor inhibition rate PAN02: female C57BL/6J mice, by tumor weight vs control group, compounds 150 mg/kg orally every day, PD-1 monoclonal antibody 10 mg/kg intraperitoneally every three days, combination: both
From the text: as §1

[1] = combined administration with the PD-1 monoclonal antibody (text summary of Table 1)

Compound | Tumor inhibition rate MFC (Tumor cells MFC) | Tumor inhibition rate H22 (Tumor cells H22) | Tumor inhibition rate CT26 (Tumor cells CT26) | Tumor inhibition rate LLC (Tumor cells LLC) | Tumor inhibition rate B16F10 (Tumor cells B16F10) | Tumor inhibition rate GL261 (Tumor cells GL261) | Tumor inhibition rate PAN02 (Tumor cells PAN02) | tumor inhibition rate, GL261 cells (Tumor cells GL261; [1]) | tumor inhibition rate, PAN02 cells (Tumor cells PAN02; [1])
CN(CCO)CC1C(=O)O[C@@H]2C[C@@]3(C)CC[C@@H](O)[C@]4(CO4)[C@@H]3C[C@H]12.O=C(O)/C=C/C(=O)O (stereo partly drawn) [Compound 4] | 27% | 26% | 31% | 24% | 23% | 23% | 22% | – | –
C[C@]12CC[C@@H](O)[C@]3(CO3)[C@@H]1C[C@@H]1C(CN(CCO)CCO)C(=O)O[C@@H]1C2.O=C(O)/C=C/C(=O)O (stereo partly drawn) [Compound 5] | 44% | 31% | 52% | 26% | 24% | 19% | 19% | – | –
CN(CCCO)CC1C(=O)O[C@@H]2C[C@@]3(C)CC[C@@H](O)[C@]4(CO4)[C@@H]3C[C@H]12.O=C(O)/C=C/C(=O)O (stereo partly drawn) [Compound 6] | 52% | 39% | 41% | 29% | 31% | 29% | 31% | up to 89% | up to 89%
CN(C)CC1C(=O)O[C@@H]2C[C@@]3(C)CC[C@@H](O)[C@]4(CO4)[C@@H]3C[C@H]12.O=C(O)/C=C/C(=O)O (stereo partly drawn) [Control compound 7, reference compound] | 38% | 52% | 60% | 44% | 41% | 39% | 43% | – | –
